Experimental findings from the OligoGym collection are described below.

Where “and” joins values, the source holds several entries; their conditions need not be identical. Equal values may be shown once. After the bases stand the sugars from the 5' end (letter, count) and the backbone: PS all phosphorothioate, else s phosphorothioate and o phosphodiester by linkage. Methylation of C is not given here. e = 2'-O-(2-methoxyethyl) (MOE); k = constrained ethyl (cEt); d = 2'-deoxy (DNA)

This series addresses IRF4. The note with it: ASO.

With CGCCGGAGGCCGCCGT (sugars k3 d10 k3, PS), the target mRNA inhibition (SK-MEL-28, 4 µM) amounted to 3%.

On to TCAAAGTCATTGCTCT (sugars k3 d10 k3, PS), for which, under “SK-MEL-28, 4 µM”, the target mRNA inhibition came to 21%.

Turning to “AAGCAGTGATGTCAGG (sugars k2 d9 e3 k2, PS)”, where the note is “MM.1R, 1 µM”, the target mRNA inhibition is 62% and 51%.

On to ATGGACATCTGCGGGT (sugars k3 d10 k3, PS), for which, for the setting “SK-MEL-28, 4 µM”, the target mRNA inhibition came to 50%.

With GTTTGTGAAGCATCCT (sugars k3 d10 k3, PS), the target mRNA inhibition (SK-MEL-28, 4 µM) stood at 65%.

As to TGAGAAAGCATGGCTC (sugars k3 d10 k3, PS), under “SK-MEL-28, 4 µM”, the target mRNA inhibition stood at 40%.

Turning to GTCACCTGGCAACCAT (sugars k4 d8 k4, PS), the target mRNA inhibition (SK-MEL-28, 4 µM) was 41%.

With CCTCCATTCTAACAGA (sugars k4 d8 k4, PS), the target mRNA inhibition (SK-MEL-28, 4 µM) is -22%.

In the case of TTTTAGTGTTACTTGC (sugars k3 d10 k3, PS), the target mRNA inhibition (SK-MEL-28, 4 µM) turned out to be 32%.

For TTGAAATGGAGCATCC (sugars k3 d10 k3, PS), under “SK-MEL-28, 4 µM”, the target mRNA inhibition was 22%.

In the case of TTCACGCACCATTCAG (sugars k3 d10 k3, PS), under “SK-MEL-28, 4 µM”, the target mRNA inhibition stood at 16%.

As to “GCACATCAATGTTTTA (sugars kkdddddddddkekek, PS)”, for the setting “MM.1R, 1 µM”, the target mRNA inhibition was 18% and 15%.

As for TGCTAGATTCTCCCTG (sugars k3 d10 k3, PS), the target mRNA inhibition (SK-MEL-28, 4 µM) is 33%.

For GCCTGGGAGTCCCCGG (sugars k3 d10 k3, PS), the target mRNA inhibition (SK-MEL-28, 4 µM) was 18%.

Turning to ACTTACACCCAGAAGT (sugars k3 d10 k3, PS), the target mRNA inhibition (SK-MEL-28, 4 µM) is -10%.

TATTACCATGCATAGT (sugars k3 d10 k3, PS): the target mRNA inhibition (SK-MEL-28, 4 µM) stood at 30%.

Take TGGCAACCATTTTCAC (sugars k3 d10 k3, PS): the target mRNA inhibition (SK-MEL-28, 4 µM) was 7%.

In the case of GTATACATCACTGCAG (sugars k3 d10 k3, PS), the target mRNA inhibition (SK-MEL-28, 4 µM) was 44%.

Turning to TCAGAAATCACGAGGT (sugars k3 d10 k3, PS), the target mRNA inhibition (MM.1R, 0.0625 µM) was -11%; the target mRNA inhibition (MM.1R, 0.25 µM) was -5%; the target mRNA inhibition (MM.1R, 4 µM) was found to be 37%.

As to AGGTCTGAGTTGTACA (sugars k3 d10 k3, PS), where the note is “MM.1R, 1 µM”, the target mRNA inhibition was 55% and 45%.

As for GATCATCAATGATGGC (sugars k3 d10 k3, PS), under “SK-MEL-28, 4 µM”, the target mRNA inhibition was determined as 63%.

For the sequence TGGTAGGTCAAACTCC (sugars k3 d10 k3, PS), the target mRNA inhibition (SK-MEL-28, 4 µM) was -13%.

As for GTGCAAAACCAGTACA (sugars k3 d10 k3, PS), where the note is “SK-MEL-28, 4 µM”, the target mRNA inhibition is 33%.

Consider GGTTTCAGTTGTAAAT (sugars k3 d10 k3, PS), for which, for the setting “SK-MEL-28, 4 µM”, the target mRNA inhibition turned out to be 58%.

In the case of GAGGAATGAGCACTCT (sugars k3 d10 k3, PS), the target mRNA inhibition (SK-MEL-28, 4 µM) turned out to be 26%.

Take GCAACACGGGAATTTC (sugars k3 d10 k3, PS): for the setting “SK-MEL-28, 4 µM”, the target mRNA inhibition is 66% and 74%.

On to AAAAGGTTCCTGTCAC (sugars k3 d10 k3, PS), for which the target mRNA inhibition (MM.1R, 1 µM) is -5%.

In the case of CAATGGAGATACTTGT (sugars k3 d10 k3, PS), under “MM.1R, 1 µM”, the target mRNA inhibition is -16%.

CTATCAGGATCTCAAG (sugars k3 d10 k3, PS): the target mRNA inhibition (SK-MEL-28, 4 µM) turned out to be 9%.

With “TCAGTTTGTGAAGCAT (sugars kkkddddddddkekek, PS)”, the target mRNA inhibition (MM.1R, 1 µM) came to 41%.

Turning to TGCTAGGATTCCTAAC (sugars k3 d10 k3, PS), the target mRNA inhibition (SK-MEL-28, 4 µM) amounted to 26%.

As to TAATCCACAATCAGCA (sugars k3 d10 k3, PS), the target mRNA inhibition (MM.1R, 1 µM) was -27%.

For the sequence AGTCTAGCTGGGTTTT (sugars k3 d10 k3, PS), the target mRNA inhibition (SK-MEL-28, 4 µM) came to 63%.

For the sequence CAAGGATAACCTGAAC (sugars k3 d10 k3, PS), the target mRNA inhibition (SK-MEL-28, 4 µM) worked out at 26%.

Turning to CTAATGGTGCTCCTAA (sugars k3 d10 k3, PS), the target mRNA inhibition (MM.1R, 1 µM) was determined as 4%.

As to “CAAGCAGTGATGTCAG (sugars kkdddddddddekeke, PS)”, the target mRNA inhibition (MM.1R, 1 µM) was 26% and 34%.

For “TGGTTGGCTGGTCTTT (sugars kkddddddddddkeke, PS)”, the target mRNA inhibition (MM.1R, 0.0625 µM) turned out to be 41%; the target mRNA inhibition (MM.1R, 0.25 µM) amounted to 56%; the target mRNA inhibition (MM.1R, 1 µM) is 80% and 68%; the target mRNA inhibition (MM.1R, 4 µM) was 85%.

Consider TCGAGATCAGTCTCAA (sugars k3 d10 k3, PS), for which, for the setting “SK-MEL-28, 4 µM”, the target mRNA inhibition was 58% and 82%.

As for AGTGAGAAAACCCCCC (sugars k3 d10 k3, PS), where the note is “MM.1R, 1 µM”, the target mRNA inhibition is 8%.

Turning to GTTCACGAAACACAGT (sugars k3 d10 k3, PS), the target mRNA inhibition (SK-MEL-28, 4 µM) was found to be 63%.

For “AGTTCATGTAAAGTCT (sugars k2 d9 e3 k2, PS)”, the target mRNA inhibition (MM.1R, 1 µM) is 41% and 30%.

As to GATAGCTGAGCTGATC (sugars k3 d10 k3, PS), the target mRNA inhibition (SK-MEL-28, 4 µM) was found to be 32%.

Turning to CAGCAAAGAGGGTCAC (sugars k3 d10 k3, PS), the target mRNA inhibition (SK-MEL-28, 4 µM) was 61%.

In the case of GACCTAATCTACAACA (sugars k3 d10 k3, PS), the target mRNA inhibition (SK-MEL-28, 4 µM) stood at 33%.
